Literature values, collected in patent US20040071685A1, “Compositions and methods for increasing the bioavailability of plant polyphenols” (priority 2002, published 2004).

Legend:
[1] = rats, oral, 700 μM/kg body weight
[2] = adults
[3] = test system: alpha-glucosidase (invertase)
[4] = rats, 15 μM administered in the stomach in situ, after 30 minutes

| SMILES | volume of distribution [2] | amount remaining in the stomach [4] [µM] | further results |
| --- | --- | --- | --- |
| O=C(O)/C=C/c1ccc(O)c(O)c1 [caffeic acid] |  |  | maximum serum level of conjugates [1]: 0.64 µM; time of maximum serum levels [1]: 2 h |
| O=c1c(-c2ccc(O)cc2)coc2cc(O)ccc12 [daidzein] | large |  |  |
| O=c1c(-c2ccc(O)cc2)coc2cc(O)cc(O)c12 [genistein] | large |  | type of inhibition [3]: reversible, slow-binding, non-competitive inhibitor |
| O=c1c(O[C@@H]2O[C@H](CO)[C@@H](O)[C@H](O)[C@H]2O)c(-c2ccc(O)c(O)c2)oc2cc(O)cc(O)c12 [isoquercitrin] |  | 15 |  |
| O=c1c(O)c(-c2ccc(O)c(O)c2)oc2cc(O)cc(O)c12 [quercetin] |  | 8.6 | amount found in the bile samples [4]: 4.1 µM |
| C[C@@H]1O[C@@H](OC[C@H]2O[C@@H](Oc3c(-c4ccc(O)c(O)c4)oc4cc(O)cc(O)c4c3=O)[C@H](O)[C@@H](O)[C@@H]2O)[C@H](O)[C@H](O)[C@H]1O [rutin] |  | 15 |  |
